Measurements published in patent publication US7601883B2, “Mammalian sour/acid taste and CSF receptor genes, polypeptides and assays” (The Regents of the University of California, priority 2005, dated 2009).

What was measured:
[1] = tested on: taste receptor cells of the tongue; experiment: Tastant-induced chorda tympani nerve recordings, wild-type mice; format: in vivo, mouse; settings: wild-type mice (WT); lingual stimulation; normalized to the response to 60 mM AceK
Text: (§1) To validate this approach as a means of uncovering TRC function, we first generated mice where T1R2-regulatory sequences were used to target DTA expression^25. T1R2 is an essential subunit of the sweet receptor heterodimer (T1R2+3), and the selective ablation of these cells should generate animals with a specific loss of sweet taste^6,9,10,17. To investigate the taste responses of the genetically modified mice, we recorded tastant-induced action potentials from nerves innervating taste receptor cells of the tongue; this physiological assay monitors the activity of the taste system at the periphery, and provides an accurate and reliable measure of taste receptor cell function. […] Next, we engineered animals where the PKD2L1 gene was used to target Cre recombinase into PKD2L1-expressing cells; appropriate expression was confirmed by performing double labeling with Cre and probes specific to PKD2L1-cells, or by crossing them to GFP reporter lines^26. Mice expressing Cre in PKD2L1 cells were crossed to conditional DTA lines, and double-positive progeny were scrutinized both for the specificity and efficiency of killing, as well as the integrity of taste buds.
(§2) Lingual stimulation and recording procedures were performed as previously described^7,9. Neural signals were amplified (10,000×) with a Grass P511 AC amplifier (Astro-Med), digitized with a Digidata 1200B A/D converter (Axon Instruments), and integrated (r.m.s. voltage) with a time constant of 0.5 s. Taste stimuli were presented at a constant flow rate of 4 ml min^−1 for 20 s intervals interspersed by 2 min rinses with artificial saliva^7,9 between presentations. All data analyses used the integrated response over a 25 s period immediately after the application of the stimulus. The mean response to 60 mM AceK was used to normalize responses to each experimental series. Tastants used for nerve recordings were: 10 mM, 60 mM acesulfameK (AceK); 10 mM, 60 mM sodium saccharin (saccharin); 300 mM sucrose; 30 mM mono potassium glutamate+1 mM inosine mono phosphate (Glu); 30 mM L alanine+1 mM inosine mono phosphate (Ala); 10 mM quinine hydrochloride (Qui); 100 μM cycloheximide (Cyx); 10 mM 6-n-propyl 2-thiouracil (PROP); 50 mM, 100 mM sodium chloride (NaCl); 10 mM, 50 mM citric acid; 10 mM, 50 mM tartaric acid; 50 mM, 500 mM acetic acid; pH 2 hydrochloric acid (HCl); 10 mM citric acid pH 2, 4 and 6.
Shown are integrated chorda tympani responses normalized to the response to 60 mM AceK; see herein for details on the ablated lines and concentrations of tastants. […] Wild type, black bars; PKD2L1-DTA, outline bars. The values are means±s.e.m. (n=5) of normalized chorda tympani responses. (c) Quantitation of acid responses of wild type (gray bars) and PKD2L1-DTA animals (outline bars). The values are means±s.e.m. (n=6).

[2] = tested on: PKD2L1-expressing TRCs; experiment: Tastant-induced chorda tympani nerve recordings, mice with DTA ablation of PKD2L1-expressing cells; format: in vivo, mouse; settings: PKD2L1-DTA mice (PKD2L1-expressing cells genetically ablated); range of 5 orders magnitude of proton concentrations
Text: as §1, §2

[Cl-].[Na+] [NaCl, sodium chloride]
neural responses to tastant (integrated chorda tympani responses) [1]: robust neural responses

CC1=CC(=O)NS(=O)(=O)O1 [acesulfameK]
neural responses to tastant (integrated chorda tympani responses) [1]: robust neural responses

CC(=O)O [acetic acid]
neural responses to tastant (integrated chorda tympani responses) [1]: robust neural responses | nerve responses to acid tastants [2]: completely abolished

O=C(O)CC(O)(CC(=O)O)C(=O)O [citric acid]
neural responses to tastant (integrated chorda tympani responses) [1]: robust neural responses | nerve responses to acid tastants [2]: completely abolished

N[C@@H](CCC(=O)O)C(=O)[O-].[K+] [glutamate, mono potassium glutamate]
neural responses to tastant (integrated chorda tympani responses) [1]: robust neural responses

Cl [hydrochloric acid]
neural responses to tastant (integrated chorda tympani responses) [1]: robust neural responses | nerve responses to acid tastants [2]: completely abolished

C=C[C@H]1CN2CC[C@H]1C[C@H]2[C@H](O)c1ccnc2ccc(OC)cc12.Cl [quinine, quinine hydrochloride]
neural responses to tastant (integrated chorda tympani responses) [1]: robust neural responses

O=C1NS(=O)(=O)c2ccccc21.[Na] [saccharin, sodium saccharin]
neural responses to tastant (integrated chorda tympani responses) [1]: robust neural responses

O=C(O)C(O)C(O)C(=O)O (stereo not drawn) [tartaric acid]
nerve responses to acid tastants [2]: completely abolished
